Experimental data published in patent publication USRE40300E1, “Carbon dioxide enhancement of inhalation therapy” (priority 1999, dated 2008).
Where two headings read alike, the source gives them in different places. Blank lines part the entries; values can stand above or below the compound they belong to.

Tests used:
[1] = Tissue distribution and pharmacokinetics of CPT after CPT-DLPC aerosol generated with normal or 5% CO2-enriched air; details: 5% CO2-in-air versus normal air
[2] = Tissue distribution and pharmacokinetics of PTX after PTX-DLPC aerosol generated with normal or 5% CO2-enriched air; type: in vivo, mice; details: for Cmax: lung, inhaled, 10 mg of PTX/ml suspension (nebulized, 30 min aerosol exposure), 30 min, read-out: Pulmonary paclitaxel Cmax
[3] = cited from earlier work
B16-F10 lung metastasis = experiment: Inhibition of B16-F10 lung metastasis by aerosol delivery; type: in vivo, C57BL/6 mice; details: 5% CO2 alone, data not shown
Protocol: B16-F10 melanoma cell line was obtained from Division of Cancer treatment and Diagnosis Center (DCTDC, NCE, Frederick, Md.) and cultivated in DMEM supplemented with 10% fetal calf serum. […] Twenty-five thousand B16-F10 cells in 200 μl of media are injected per mice via the tail vein of C57BL/6 mice. Lung metastases are visually detected within 2 weeks after inoculation of cells. The cells were used at passages 3-12.
C57BL/6 mice were injected intravenously with 25,000 B16-F10 cells on day 0. The mice were treated with polyethylenimine-p53 aerosol complexes generated using 5% CO2 twice a week starting the day after inoculation of the cancer cells into the mice (on days 1, 4, 8, 11, 15, 18, and 22) with the last treatment on day 22 postinjection (a total of seven aerosol exposures). Control groups included untreated mice, mice treated with polyethyleneimine or with polyethylenimine-Luc aerosol complexes. The control animals start dying around day 24 post tumor cell inoculation, which is when the therapy was stopped and the experiment terminated. The dosage of treatment was 2 mg plasmid/10 ml of aerosolized solution at a polyethyleneimine:DNA (N:P) ratio of 10:1. This is the total amount of DNA aerosolized to the mice. […]

[4] = cited from earlier work; for increase in frequency of breathing / increase in minute volumes / increase in tidal volumes: normal humans
[5] = inhalation of 5% carbon dioxide
[6] = 5% carbon dioxide for two minutes
[7] = 7.5% carbon dioxide for two minutes

SMILES: CC[C@@]1(O)C(=O)OCc2c1cc1n(c2=O)Cc2cc3ccccc3nc2-1 [camptothecin]
average pulmonary deposition increase [1]: 2-4 fold

area under the lung-concentration-time curve ([2]; 5% CO2): 33.7 µg·h/g
T1/2α in the lungs ([2]; 5% CO2-air): 0.7 h
T1/2β in the lungs ([2]; 5% CO2-air): 5.1 h
AUC over a 3 hr period, fifth value of list (blood) ([2]; 5% CO2-air, trapezoidal rule): 0.13±0.10 μg PTS-hr/g of tissue
AUC over a 3 hr period, fourth value of list (kidney) ([2]; 5% CO2-air, trapezoidal rule): 2.8±1.5 μg PTS-hr/g of tissue
AUC over a 3 hr period, liver ([2]; 5% CO2-air, trapezoidal rule): 9.8±1.9 μg PTS-hr/g of tissue
AUC over a 3 hr period, lungs ([2]; 5% CO2-air, trapezoidal rule): 34±2 μg PTS-hr/g of tissue
AUC over a 3 hr period, sixth value of list (brain) ([2]; 5% CO2-air, trapezoidal rule): 0.23±0.2 μg PTS-hr/g of tissue
average pulmonary deposition increase ([2]; 5% CO2-in-air versus normal air): 2-4 fold
Cmax ratio 5% CO2-enriched air versus ambient air ([2]; lungs): 4.2 fold
lung AUC ratio 5% CO2 versus normal air ([2]; mouse, in vivo): 5.7 fold
Cmax ([2]; mouse, 5% CO2-enriched air): 23100 ± 4300 ng/g
Cmax ([2]; mouse, ambient air): 5500 ± 200 ng/g
T1/2α in the lungs ([2]; normal air): 0.3 h
T1/2β in the lungs ([2]; normal air): 1.6 h
area under the lung-concentration-time curve ([2]; normal air): 5.9 µg·h/g
levels of paclitaxel in liver, spleen, kidney and blood ([2]; normal air for aerosolization): below detectable levels
SMILES: CC(=O)O[C@H]1C(=O)[C@@]2(C)[C@H]([C@H](OC(=O)c3ccccc3)[C@]3(O)C[C@H](OC(=O)[C@H](O)[C@@H](NC(=O)c4ccccc4)c4ccccc4)C(C)=C1C3(C)C)[C@]1(OC(C)=O)CO[C@@H]1C[C@@H]2O [paclitaxel]

SMILES: O=C=O [carbon dioxide]
increase in tidal volume ([3]; 5% CO2-enriched air, mammalians, plethysmograph studies): 170-180%
increase in tidal volume [3, 5]: ≤ 192%
effect on the growth of tumors compared to untreated mice (B16-F10 lung metastasis): no effect
increase in frequency of breathing [4, 6]: 6.7%
increase in minute volumes [4, 6]: 34%
increase in tidal volumes [4, 6]: 31%
increase in frequency of breathing [4, 7]: 19%
increase in minute volumes [4, 7]: 75%
increase in tidal volumes [4, 7]: 52%
increase in the minute volume [4, 5]: 3 fold
